Measured values from paper PMC12867150, “A fungi-derived cyclic peptide enhances Th9-mediated antitumor immunity by targeting ZAP70 and SREBP1” (The Journal of Clinical Investigation, 2025).
Several values for one entry are separate records, joined by “and”; a condition that tells them apart may be missing. Equal values may be shown once.

Experiments:
Treg cells = assay: Treg polarization, Foxp3 by flow cytometry (Figure 1I); assay type: cell-based, mouse
Procedure: Naive CD4^+ T cells were isolated from the spleens of C57BL/6J or CD45.1^+ OT-II mice using the MojoSort Mouse CD4 Naive T Cell Isolation Kit (BioLegend, catalog 480040), following the manufacturer’s protocol. Purified cells were cultured in RPMI-1640 medium supplemented with 10% FBS, 1% penicillin-streptomycin, and 0.1% β-mercaptoethanol (Gibco, catalog 21985023).
T cell polarization was initiated under plate-bound anti-CD3 (2 μg/mL, clone 17A2, BioXCell, catalog BE0002) and soluble anti-CD28 (1 μg/mL, clone 37.51, BioXCell, catalog BE0015-1) stimulation, with the addition of cytokines and neutralizing antibodies specific to each subset. For Th9 cells, these included IL-4 (10 ng/mL, Peprotech, catalog 400-04), TGF-β (1 ng/mL, EPOTO Biotech, catalog HF-2021), anti–IL-12 (5 μg/mL, clone C17.8, BioXCell, catalog BE0051), and anti–IFN-γ (10 μg/mL, clone XMG1.2, BioXCell, catalog BE0055); for Th1 cells, these included IL-12 (10 ng/mL, GenScript, catalog Z03211-50) and anti–IL-4 (5 μg/mL, clone 11B11, BioXCell, catalog BE0045); for Th2 cells, these included IL-4 (50 ng/mL), anti–IFN-γ (20 μg /mL), anti–IL-12 (5 μg/mL), Th17 cells: IL-6 (20 ng/mL, EPOTO Biotech, catalog MF-1006), TGF-β (1 ng/mL), IL-1β (10 ng/mL, Peprotech, catalog AF-211-11B), anti–IFN-γ (10 μg/mL), anti–IL-12 (5 μg/mL), and anti–IL-4 (5 μg/mL); and for Tregs, these included TGF-β (3 ng/mL). […]

Th9 cells = assay: IL-9+ Th9 cells with oleic acid (S8I-J); assay type: cell-based, mouse; settings: representative flow plot, Figure S8I; EpA 10 μM, OA 50 μM
Source text: LXR-α binding site ChREBP binding site USF1 binding site […] 2.1 1.8 2.1 […] 1.9 […] 20 20 0 […] + OA ✱✱✱✱ MIGR1 M Ctrl + OAEpA […] SREBP1 Ctrl SREBP1EpA ✱✱✱✱ ✱✱✱ 3 2 1 0 TNF-α MIGR1 SREBP1 […] SREBP1EpA Figure S8. EpA-associated modulation of lipid metabolism and its impact on Figure S8 Th9 cell function. (A-C) GSEA of RNA-seq data showing intracellular sterol transport (A), sterol transfer activity (B), and long-chain fatty acid transport (C) pathways in control and EpA-treated Th9 cells. […] (K and L) Flow-cytometric analysis of IL-9 expression in Th9 cells transduced with either control (MIGR1) or SREBP1- […]

[1] = tested on: lipid species of Th9 cells; assay: Untargeted lipidomics of Th9 cells (Figure 6B); assay type: cell-based, mouse; settings: day 4; result in words
Procedure: Comprehensive lipidomic profiling was performed using a liquid chromatography–mass spectrometry (LC-MS) platform. Briefly, samples were first subjected to protein precipitation and impurity removal to ensure metabolite integrity. Lipid species were then extracted using a solvent-based protocol optimized for broad lipid class coverage. LC-MS analysis was conducted in both positive and negative ionization modes to maximize lipid detection breadth. Mass spectrometry data, including MS and MS/MS spectra, were acquired using a high-resolution instrument. Lipid identification and quantification were performed using LipidSearch software (Thermo Fisher Scientific), which generated a lipid expression matrix for downstream statistical and pathway analysis.

Procedure for Raji lymphoma cells: For infection, human T cells were activated for 40 hours with plate-bound anti-CD3 (BioLegend, clone OKT3, 5 μg/mL) and soluble anti-CD28 antibodies (BioLegend, clone CD28.2, 2 μg/mL) antibodies and then resuspended in viral supernatant (MOI = 5) supplemented with recombinant human IL-2 (100 U/mL) and polybrene (10 μg/mL). The cell-virus mixture was subjected to spinoculation at 550g for 2 hours at room temperature, followed by incubation for 24 hours. Transduced CAR T cells were harvested on days 5 or 7 after activation for downstream functional assays.
The cytotoxic activity of CD19-targeting CAR T cells was evaluated using a luciferase-based bioluminescence assay. Raji cells stably expressing firefly luciferase (ffLuc) were resuspended in RPMI 1640 medium supplemented with 10% FBS and seeded into 24-well plates. CAR T cells were added at various effector-to-target (E:T) ratios, while tumor-only wells were included as negative controls. After 20 hours of coculture, 20,000 cells from each tumor-only control well were harvested, washed with PBS, resuspended in 100 μL of lysis buffer, and transferred to a black 96-well plate. Luminescence intensity was measured using a multimode plate reader, and the percentage of specific lysis was calculated as follows: % Cytotoxicity = 1 – (luminescence of coculture well/luminescence of tumor-only control well).

## anteiso-C15 Leu7 surfactin [EpA]
Treg cells; EpA 10 μM, individual replicates, n = 4
  Foxp3 expression under Treg polarization: 47.3 and 45.9 and 45.6 and 47.5
Treg cells; result in words
  effect on Treg polarization: did not affect
Th9 cells
  IL-9 gate number: 77.2
[1]
  lipid species: global reduction in lipid species
Raji lymphoma cells
  cytotoxicity against Raji cells: significantly greater cytotoxicity
